Laboratory results reported in US6816257B2, “Method and apparatus for detecting microparticles in fluid samples” (priority 1997, dated 2004).

Test system: B. plicatilis rotifer
Assay: Rotifer feeding rate toxicity test (fluosphere ingestion measured by laser fluorescence capillary device)
Assay type: in vivo, Brachionus plicatilis
Experimental: Water quality monitoring using rotifers was performed using a capillary tube with an internal diameter of 70 μm, a narrow band, 635 nm, 3 mW diode laser with a beam diameter of 40 μm was used. Interference filters were selected to transmit 12% at 670 nm (20 nm FWM), and 10^−6 at all other wavelengths.
1. A live B. plicatilis rotifer culture was obtained from Aqua-Farms, Fla. These rotifers were chosen because they are easy to raise, and the influence of toxic samples on their feeding, reproduction, and death rates have been studied extensively. The average concentration of rotifers in a 100 ml vial was counted using five 20 μl samples examined under a 50× microscope. […]
2. Two samples of 8 ml each were used to make the feeding rate measurements, a reference sample and test sample. These two vials were filled with the 500 rotifers/ml reference solution.
3. A […] diazanon solution was prepared using the rotifer medium solution, so as to maintain water quality parameters such as pH, O2, alkalinity, salinity, and temperature as constant as possible. A 20 μl amount of the diazanon solution was added to test sample.
4. After a 5 minute incubation, 20 μl of a 40×10^6 beads/ml solution of crimson fluospheres was added to both the reference and test samples. The time was noted as t=0.
5. Using two identical syringes connected with a luer union to a 100 μm piece of nylon tubing terminated with a 20 μm plankton filter, a 50 μl sample was extracted from the reference and test samples. In both cases, the organisms were filtered out from the bead solution.
6. The reference and test samples were successively passed through the test chamber using the syringe pump at a flow rate of 15 μl/min. […]
Each data file was retrieved, using TOXANA™, a time series data analysis software program. […] An assessment of the signal baseline mean and variance values (where no peak is detected) was made for each file. […]
The number of peaks with an intensity above Td were calculated for each file, as well as the average peak intensity, the average peak width, and the average peak area.

Structure (SMILES): CCOP(=S)(OCC)Oc1cc(C)nc(C(C)C)n1 [diazanon]
- feeding rate reduced by a factor (vs control sample) (exposure to 1 ppm of diazanon, 500 rotifers/ml, FIG. 7B): 30
- ingestion rate per organism (test sample containing 1 ppm of diazanon, 500 rotifers/ml, 5 minute incubation, FIG. 7B): 10^−3 beads/sec
- feeding rate (test sample containing 1 ppm of diazanon, 600 rotifers/ml, FIG. 7C): less than 0.05 beads/min
